“And” between values parts separate entries of the source, which are not always exact repeats. Identical values can stand only once. Like-named read-outs stand apart in the source and are kept apart here.
Columns and labels:
Assay in all cases: Chymotrypsin coupled prolyl-isomerase assay
Format in all cases: biochemical
CypG = target: T1, CypG (Homo sapiens, UniProt Q13427); conditions: for CypG prolyl-isomerase assay raw dose-response value: Fig. 3b source data, replicates
T1 construct: PPIG (UniProtKB Entry Q13427: residues 1–179); His6 with thrombin site (pET28a LIC leader) (N); host or cells: E. coli BL21(DE3)
T1 sequence (Q13427 1-179): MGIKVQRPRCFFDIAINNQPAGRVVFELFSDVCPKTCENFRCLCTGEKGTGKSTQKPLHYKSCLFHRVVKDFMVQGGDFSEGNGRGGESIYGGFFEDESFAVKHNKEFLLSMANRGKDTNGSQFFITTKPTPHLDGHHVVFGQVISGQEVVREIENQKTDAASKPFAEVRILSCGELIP
Summary of the method: (§1)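 5 nM Cyp, HEPES pH 7.3/NaCl/Triton buffer, 2–3 °C; cpd 5 min, chymotrypsin 25 µM 5 min, then Suc-AAPF-AMC 5 µM in LiCl/TFE. Kinetic fluorescence 330 s. Per-well rate constants, normalized, IC50 from nonlinear fit.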

CypH = target: T2, CypH (Homo sapiens, UniProt O43447); conditions: for CypH prolyl-isomerase assay raw dose-response value: Fig. 3b source data, replicates
T2 construct: PPIH (UniProtKB Entry O43447: residues 1–177); His6 with TEV site (2BT vector leader) (N); made in house; host or cells: E. coli BL21(DE3)
Summary of the method: as §1

CypE = target: T3, CypE (Homo sapiens, UniProt Q9UNP9); conditions: for CypE prolyl-isomerase assay raw dose-response value: Fig. 3b source data, replicates
T3 construct: PPIE (UniProtKB Entry Q9UNP9: residues 131–301); host or cells: E. coli BL21(DE3)
Summary of the method: as §1

CypA = target: T4, CypA (Homo sapiens, UniProt P62937); conditions: for CypA prolyl-isomerase assay raw dose-response value: Fig. 3b source data, replicates
T4 construct: PPIA (UniProtKB Entry P62937: residues 1–165); made in house; host or cells: E. coli BL21(DE3)
Summary of the method: as §1

CypC = target: T5, CypC (Homo sapiens, UniProt P45877); conditions: for CypC prolyl-isomerase assay raw dose-response value: Fig. 3b source data, replicates
T5 construct: PPIC (UniProtKB Entry P45877: residues 24–212); host or cells: E. coli BL21(DE3)
Summary of the method: as §1

T3 sequence (Q9UNP9 131-301): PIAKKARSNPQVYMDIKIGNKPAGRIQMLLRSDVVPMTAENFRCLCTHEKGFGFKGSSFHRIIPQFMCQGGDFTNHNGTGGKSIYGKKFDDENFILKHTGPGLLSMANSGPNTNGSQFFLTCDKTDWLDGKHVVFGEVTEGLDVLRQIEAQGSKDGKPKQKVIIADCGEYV
T2 sequence (O43447 whole entry, the tested form may be a part): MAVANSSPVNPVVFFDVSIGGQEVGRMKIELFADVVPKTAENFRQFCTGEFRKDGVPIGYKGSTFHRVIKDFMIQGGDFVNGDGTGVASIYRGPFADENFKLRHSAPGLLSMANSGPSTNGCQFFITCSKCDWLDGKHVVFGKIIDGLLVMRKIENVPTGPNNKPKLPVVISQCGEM
T5 sequence (P45877 24-212): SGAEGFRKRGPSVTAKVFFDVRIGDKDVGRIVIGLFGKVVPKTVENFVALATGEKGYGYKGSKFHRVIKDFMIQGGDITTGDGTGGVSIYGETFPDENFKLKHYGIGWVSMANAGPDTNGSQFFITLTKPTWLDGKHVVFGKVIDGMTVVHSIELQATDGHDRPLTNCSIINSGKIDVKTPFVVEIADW
T4 sequence (P62937 whole entry, the tested form may be a part): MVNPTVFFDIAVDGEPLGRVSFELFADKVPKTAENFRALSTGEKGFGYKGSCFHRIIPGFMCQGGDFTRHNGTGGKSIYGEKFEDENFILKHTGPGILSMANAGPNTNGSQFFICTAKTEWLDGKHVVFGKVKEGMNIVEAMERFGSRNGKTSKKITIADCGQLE

## NCCOCCNC(=O)[C@@H]1CCNC(=O)/C=C/C(=O)N2CCC[C@](Cc3ccccc3)(C2)C(=O)N[C@@H](Cc2ccc(-c3ccc(CCC(=O)O)cc3)cc2)C(=O)NCc2ccccc2CC(=O)N1 [Compound B23]
CypG; Dose 0.0201875 µM
  CypG prolyl-isomerase assay raw dose-response value: 0.05557 and 0.07057 and 0.08284
CypG; Dose 0.0605624 µM
  CypG prolyl-isomerase assay raw dose-response value: 0.06342 and 0.06664 and 0.0785
CypG; Dose 0.181687 µM
  CypG prolyl-isomerase assay raw dose-response value: 0.06147 and 0.06545 and 0.06938
CypG; Dose 0.545062 µM
  CypG prolyl-isomerase assay raw dose-response value: 0.06208 and 0.06061 and 0.06273
CypG; Dose 1.63519 µM
  CypG prolyl-isomerase assay raw dose-response value: 0.04663 and 0.04276 and 0.05928
CypG; Dose 4.90556 µM
  CypG prolyl-isomerase assay raw dose-response value: 0.04439 and 0.04343 and 0.05116
CypG; Dose 14.7167 µM
  CypG prolyl-isomerase assay raw dose-response value: 0.03836 and 0.03799 and 0.04109
CypG; Dose 44.15 µM
  CypG prolyl-isomerase assay raw dose-response value: 0.02708 and 0.02241 and 0.02205
CypG; wild-type CypG, read-out: Wild-Type Cyclophilin Prolyl Isomerase Inhibition IC50 Values, CypG
  IC50: 5000 nM
CypH; Dose 0.0201875 µM
  CypH prolyl-isomerase assay raw dose-response value: 0.05491 and 0.05835 and 0.05541
CypH; Dose 0.0605624 µM
  CypH prolyl-isomerase assay raw dose-response value: 0.04538 and 0.05559 and 0.06086
CypH; Dose 0.181687 µM
  CypH prolyl-isomerase assay raw dose-response value: 0.05774 and 0.04961 and 0.05822
CypH; Dose 0.545062 µM
  CypH prolyl-isomerase assay raw dose-response value: 0.05324 and 0.05013 and 0.05095
CypH; Dose 1.63519 µM
  CypH prolyl-isomerase assay raw dose-response value: 0.05541 and 0.05439 and 0.06013
CypH; Dose 4.90556 µM
  CypH prolyl-isomerase assay raw dose-response value: 0.05126 and 0.04228 and 0.05669
CypH; Dose 14.7167 µM
  CypH prolyl-isomerase assay raw dose-response value: 0.04371 and 0.04194 and 0.04598
CypH; Dose 44.15 µM
  CypH prolyl-isomerase assay raw dose-response value: 0.03624 and 0.03187 and 0.03195
CypH; prolyl-isomerase inhibition, 5 nM cyclophilin, read-out: IC50 CypH
  IC50: ~30000 nM
CypH; wild-type CypH, read-out: Wild-Type Cyclophilin Prolyl Isomerase Inhibition IC50 Values, CypH
  IC50: 30000 nM
CypE; Dose 0.00457247 µM
  CypE prolyl-isomerase assay raw dose-response value: 0.1029 and 0.09388 and 0.1478
CypE; Dose 0.0137174 µM
  CypE prolyl-isomerase assay raw dose-response value: 0.07275 and 0.07554 and 0.1142
CypE; Dose 0.0411523 µM
  CypE prolyl-isomerase assay raw dose-response value: 0.04814 and 0.04078 and 0.05584
CypE; Dose 0.123457 µM
  CypE prolyl-isomerase assay raw dose-response value: 0.02663 and 0.02961 and 0.04183
CypE; Dose 0.37037 µM
  CypE prolyl-isomerase assay raw dose-response value: 0.01687 and 0.01785 and 0.01578
CypE; Dose 1.11111 µM
  CypE prolyl-isomerase assay raw dose-response value: 0.01294 and 0.01514 and 0.0179
CypE; Dose 3.33333 µM
  CypE prolyl-isomerase assay raw dose-response value: 0.01306 and 0.01252 and 0.01422
CypE; Dose 10 µM
  CypE prolyl-isomerase assay raw dose-response value: 0.01752 and 0.01195 and 0.01258
CypE; wild-type CypE, read-out: Wild-Type Cyclophilin Prolyl Isomerase Inhibition IC50 Values, CypE
  IC50: 19 nM
CypA; CypA column within the mutant section (comparator for CypA E81S/K82R), read-out: Mutant Cyclophilin Prolyl Isomerase Inhibition IC50 Values, CypA
  IC50: 80 nM
CypA; Dose 0.0201875 µM
  CypA prolyl-isomerase assay raw dose-response value: 0.09097 and 0.1013 and 0.1158
CypA; Dose 0.0605624 µM
  CypA prolyl-isomerase assay raw dose-response value: 0.07524 and 0.06823 and 0.07786
CypA; Dose 0.181687 µM
  CypA prolyl-isomerase assay raw dose-response value: 0.04845 and 0.04593 and 0.054
CypA; Dose 0.545062 µM
  CypA prolyl-isomerase assay raw dose-response value: 0.03092 and 0.02915 and 0.02773
CypA; Dose 1.63519 µM
  CypA prolyl-isomerase assay raw dose-response value: 0.0188 and 0.01847 and 0.01826
CypA; Dose 4.90556 µM
  CypA prolyl-isomerase assay raw dose-response value: 0.01632 and 0.01475 and 0.01432
CypA; Dose 14.7167 µM
  CypA prolyl-isomerase assay raw dose-response value: 0.01473 and 0.01273 and 0.01279
CypA; Dose 44.15 µM
  CypA prolyl-isomerase assay raw dose-response value: 0.01511 and 0.01244 and 0.01258
CypA; prolyl-isomerase inhibition, 5 nM cyclophilin, read-out: IC50 CypA
  IC50: 80 ± 10 nM
CypA; prolyl-isomerase inhibition, read-out: IC50 CypA
  IC50: 80 nM
CypA; wild-type CypA, read-out: Wild-Type Cyclophilin Prolyl Isomerase Inhibition IC50 Values, CypA
  IC50: 80 nM
CypC; Dose 0.0201875 µM
  CypC prolyl-isomerase assay raw dose-response value: 0.0364 and 0.03611 and 0.04566
CypC; Dose 0.0605624 µM
  CypC prolyl-isomerase assay raw dose-response value: 0.03688 and 0.04021 and 0.04113
CypC; Dose 0.181687 µM
  CypC prolyl-isomerase assay raw dose-response value: 0.04275 and 0.03781 and 0.03638
CypC; Dose 0.545062 µM
  CypC prolyl-isomerase assay raw dose-response value: 0.03775 and 0.04123 and 0.03915
CypC; Dose 1.63519 µM
  CypC prolyl-isomerase assay raw dose-response value: 0.0345 and 0.03482 and 0.03957
CypC; Dose 4.90556 µM
  CypC prolyl-isomerase assay raw dose-response value: 0.0293 and 0.02714 and 0.0334
CypC; Dose 14.7167 µM
  CypC prolyl-isomerase assay raw dose-response value: 0.02525 and 0.02065 and 0.02297
CypC; Dose 44.15 µM
  CypC prolyl-isomerase assay raw dose-response value: 0.02045 and 0.01408 and 0.0166
CypC; wild-type CypC, read-out: Wild-Type Cyclophilin Prolyl Isomerase Inhibition IC50 Values, CypC
  IC50: 5000 nM
